Measurements published in patent US11760775B2, “Steroids and protein-conjugates thereof” (Regeneron Pharmaceuticals, Inc., priority 2016, dated 2023).
Values joined by “and” are separate entries in the source; they are usually repeats but may differ in a detail not shown here. Equal values may be shown once. Where a name gives a salt, the structure may show the parent alone. Read-outs that look alike come from different tables or passages of the source.

Key:
[1] = Pharmacokinetics of 4b and 6-I in mice (blood concentration-time); assay type: in vivo, C57BL/6j mice; conditions: in vivo
[2] = tested on: LPS-induced cytokine release (TNF-α); assay: Mouse model of LPS induced cytokine release (TNF-α in plasma); assay type: in vivo, C57BL/6j mice
CD11c+ splenic DCs = assay: Ex vivo LPS-induced cytokine production in mouse splenic CD11c+ dendritic cells; assay type: cell-based, C57Bl/6 mice; design: TNF-a / IL-12p70 / IL-1b / IL-6 / KC-GRO: unit not given here
Experimental: (§1) Supernatants were collected into 96-well round bottom tissue culture plates 24 hours post-LPS challenge and stored at −20° C. until further analysis. Cytokine concentrations in the supernatants were measured using a Pro-inflammatory Panel 1 (mouse) multiplex immunoassay kit (MesoScale Discovery, Cat #K15048D) according to manufacturer's instructions or Pro-inflammatory Panel 1 (human) multiplex immunoassay kit (MesoScale Discovery, Cat #K15049D). In brief, 50 μL/well of calibrators and samples (diluted in Diluent 1:2) were added to the plates pre-coated with capture antibodies and incubated at room temperature while shaking at 700 rpm for 2 hours. The plates were then washed 3 times with 1×PBS containing 0.05% (w/v) Tween-20, followed by the addition of 25 μL of Detection Antibody Solution diluted in Diluent 45. After 2-hour incubation at room temperature while shaking, the plates were washed 3 times, and 150 μL of 2× Read Buffer was added to each well. Electrochemiluminescence was immediately read on a MSD Spector® instrument. Data analysis was performed using GraphPad Prism™ software. Statistical significance within the groups was determined by one-way Anova with Turkey's multiple comparison post-test and standard error of mean (SEM±) calculated.

[3] = tested on: GR activation in 293/GRE-Luc cells (293_PBind GR/UAS-Luc); assay: Luciferase reporter assay in antigen negative 293/GRE-Luc cells; assay type: cell-based, human; conditions: Homo sapiens, 72 h, read-out: EC50 in 293/GRE-Luc (M)
[4] = tested on: human monocyte derived-DC; assay: Ex vivo LPS-induced cytokine production in human monocyte derived DCs; assay type: cell-based; design: IL-6 / IL-8 / TNF-a / IL-12p70 / IL-1b: unit not given here
Experimental: The complete-RPMI with IL4 and GM-CSF was changed every three days. […]
as §1

[5] = tested on: GR activation in 293/PRLR/GRE-Luc cells (HEK293/9xUAS-Luc2P/pBind-GR/PRLR-HA high cells); assay: GR co-activator luciferase reporter cell based assay in 293/PRLR/GRE-Luc cells; design: species or system human; conditions: for EC50: Homo sapiens
Method in brief: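 EC50 was derived from a 10-point, four-parameter logistic fit of One-Glo luminescence. The reporter is driven by Gal4UAS through GR ligand-binding domain fused to Gal4 DBD in PRLR-expressing 293 cells, after ADC internalization or free steroid exposure. Activation below 10% of the free-payload maximum counts as minimal.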

[6] = male, C57BL/6, mouse, ip, 1 mg/kg

For CCCC1O[C@@H]2C[C@H]3[C@@H]4C[C@H](F)C5=CC(=O)C=C[C@]5(C)[C@@]4(F)[C@@H](O)C[C@]3(C)[C@]2(C(=O)CN)O1 (stereo partly drawn) [Compound 4b, (1S,2S,4R,6R,8S,9S,11S,12R,13S,19S)-8-(2-Aminoacetyl)-12,19-difluoro-11-hydroxy-9,13-dimethyl-6-propyl-5,7-dioxapentacyclo[10.8.0.0^2,90.0^4,80.0^13,18]icosa-14,17-dien-16-one; trifluoroacetic Acid Salt], the AUC(0-inf) [1, 6] was 89.2 ng·h/mL, the AUC(0-t) [1, 6] was 84.6 ng·h/mL and the Cmax [1, 6] was 39.4 ng/mL. The half-life ([1]; mouse, IP, 1 mg/Kg in male C57BL/6 mice, Mean, read-out: Terminal t1/2 (converted)) was 1.69 h, the “Inhibition of TNF-α production” value ([2]; 5 mpk ip before LPS challenge, plasma at 2 hr time point) was “significantly inhibited TNF-α production” and the “TNF-a” value ([2]; plasma 2 hr post LPS challenge, 5MPK ip (−2 h) prior to LPS, individual mice, trifluoroacetic Acid Salt) was 56.5 pg/mL and 10.4 pg/mL and 274.8 pg/mL. For the same compound, the IL-1b (CD11c+ splenic DCs; 10 nM + LPS) was 6.32 ± 0.83, the IL-6 (CD11c+ splenic DCs; 10 nM + LPS) was 184.54 ± 21.59 and the IL-12p70 (CD11c+ splenic DCs; 10 nM + LPS) was 3.84 ± 2.88. The KC-GRO (CD11c+ splenic DCs; 10 nM + LPS) was 186.57 ± 15.71, the TNF-a (CD11c+ splenic DCs; 10 nM + LPS) was 146.46 ± 18.66 and the “LPS-induced cytokine responses in CD11c+ DCs” value (CD11c+ splenic DCs; 10 nM and 100 nM for 24 hours before LPS 10 ng/mL) was “significantly decreased LPS-induced cytokine responses”. The IL-1b (CD11c+ splenic DCs; 10 nM, no LPS) was 5.22 ± 0.11, the IL-6 (CD11c+ splenic DCs; 10 nM, no LPS) was 47.90 ± 4.55 and the IL-12p70 (CD11c+ splenic DCs; 10 nM, no LPS) was 5.24 ± 1.12. It also gave a KC-GRO (CD11c+ splenic DCs; 10 nM, no LPS) of 62.85 ± 6.51, a TNF-a (CD11c+ splenic DCs; 10 nM, no LPS) of 0 ± 0 and an IL-1b (CD11c+ splenic DCs; 100 nM + LPS) of 4.80 ± 0.99. It also gave an IL-6 (CD11c+ splenic DCs; 100 nM + LPS) of 201.10 ± 20.96, an IL-12p70 (CD11c+ splenic DCs; 100 nM + LPS) of 8.21 ± 2.79 and a KC-GRO (CD11c+ splenic DCs; 100 nM + LPS) of 211.96 ± 25.23. It also gave a TNF-a (CD11c+ splenic DCs; 100 nM + LPS) of 193.29 ± 25.56, an IL-1b (CD11c+ splenic DCs; 100 nM, no LPS) of 5.65 ± 0.18 and an IL-6 (CD11c+ splenic DCs; 100 nM, no LPS) of 63.87 ± 4.78. It also gave an IL-12p70 (CD11c+ splenic DCs; 100 nM, no LPS) of 6.43 ± 0.67, a KC-GRO (CD11c+ splenic DCs; 100 nM, no LPS) of 84.30 ± 6.06 and a TNF-a (CD11c+ splenic DCs; 100 nM, no LPS) of 0 ± 0. The EC50 [3] was less than 5e-09 M, the Pro-inflammatory cytokine production ([4]; Condition 1: entire 7-day conditioning period) was “significantly reduced pro-inflammatory cytokine production” and the IL-1b ([4]; Condition 1, 10 nM + LPS) was 1.18 ± 0.11. For the same compound, the IL-6 ([4]; Condition 1, 10 nM + LPS) was 325.46 ± 2.12, the IL-8 ([4]; Condition 1, 10 nM + LPS) was 8670.27 ± 268.97 and the IL-12p70 ([4]; Condition 1, 10 nM + LPS) was 1.05 ± 0.08. It also gave a TNF-a ([4]; Condition 1, 10 nM + LPS) of 117.75 ± 6.63, an IL-1b ([4]; Condition 1, 10 nM, no LPS) of 0.61 ± 0.007 and an IL-6 ([4]; Condition 1, 10 nM, no LPS) of 2.23 ± 0.002. It also gave an IL-8 ([4]; Condition 1, 10 nM, no LPS) of 166.99 ± 2.01, an IL-12p70 ([4]; Condition 1, 10 nM, no LPS) of 0.58 ± 0.002 and a TNF-a ([4]; Condition 1, 10 nM, no LPS) of 1.28 ± 0.087. It also gave an IL-1b ([4]; Condition 1, 100 nM + LPS) of 1.01 ± 0.07, an IL-6 ([4]; Condition 1, 100 nM + LPS) of 159.32 ± 7.31 and an IL-8 ([4]; Condition 1, 100 nM + LPS) of 8461.59 ± 522.77. The IL-12p70 ([4]; Condition 1, 100 nM + LPS) was 0.50 ± 0.19, the TNF-a ([4]; Condition 1, 100 nM + LPS) was 123.31 ± 0.11 and the IL-1b ([4]; Condition 1, 100 nM, no LPS) was 0.641 ± 0.15. It also gave an IL-6 ([4]; Condition 1, 100 nM, no LPS) of 3.45 ± 0.13, an IL-8 ([4]; Condition 1, 100 nM, no LPS) of 136.50 ± 0.87 and an IL-12p70 ([4]; Condition 1, 100 nM, no LPS) of 0.66 ± 0.03. The TNF-a ([4]; Condition 1, 100 nM, no LPS) was 1.46 ± 0.10, the “Production of IL12p70, IL6 and TNF-α” value ([4]; Condition 2: conditioning of mature monocyte-derived DCs) was “significantly decreased the production of IL12p70, IL6 and TNF-α” and the IL-1b ([4]; Condition 2, 10 nM + LPS) was 30.10 ± 0.93. It also gave an IL-6 ([4]; Condition 2, 10 nM + LPS) of 5124.75 ± 114.8, an IL-8 ([4]; Condition 2, 10 nM + LPS) of 3003.52 ± 212.16 and an IL-12p70 ([4]; Condition 2, 10 nM + LPS) of 4.81 ± 0.63. For the same compound, the TNF-a ([4]; Condition 2, 10 nM + LPS) was 874.18 ± 30.46, the IL-1b ([4]; Condition 2, 10 nM, no LPS) was 0.59 ± 0.005 and the IL-6 ([4]; Condition 2, 10 nM, no LPS) was 12.87 ± 0.312. The IL-8 ([4]; Condition 2, 10 nM, no LPS) was 274.75 ± 1.75, the IL-12p70 ([4]; Condition 2, 10 nM, no LPS) was 0.60 ± 0.01 and the TNF-a ([4]; Condition 2, 10 nM, no LPS) was 2.03 ± 0.14. For the same compound, the IL-1b ([4]; Condition 2, 100 nM + LPS) was 18.20 ± 1.04, the IL-6 ([4]; Condition 2, 100 nM + LPS) was 4680.03 ± 104.90 and the IL-8 ([4]; Condition 2, 100 nM + LPS) was 2735.36 ± 87.88. It also gave an IL-12p70 ([4]; Condition 2, 100 nM + LPS) of 2.03 ± 0.16, a TNF-a ([4]; Condition 2, 100 nM + LPS) of 696.26 ± 75.10 and an IL-1b ([4]; Condition 2, 100 nM, no LPS) of 0.59 ± 0.03. The IL-6 ([4]; Condition 2, 100 nM, no LPS) was 11.25 ± 0.82, the IL-8 ([4]; Condition 2, 100 nM, no LPS) was 317.46 ± 14.83 and the IL-12p70 ([4]; Condition 2, 100 nM, no LPS) was 0.61 ± 0.02. The TNF-a ([4]; Condition 2, 100 nM, no LPS) was 1.37 ± 0.251, the “EC50 of GRE-Luc activation” value ([5]; 293/PRLR/GRE-Luc cells, 72 hours) was “better IC50 value than Budesonide and Dexamethasone” and the EC50 ([5]; HEK293, read-out: EC50 in 293/PRLR/GRE-Luc (M), 72 hrs of incubation) was less than 5e-09 M. For the same compound, the EC50 ([5]; HEK293, read-out: HEK293/9xUAS-Luc2P/pBind-GR/PRLR-HA high cells EC50) was less than 1e-08 M and the “HEK293/9xUAS-Luc2P/pBind-GR/PRLR-HA high cells activation relative to Budesonide” value ([5]; fold activation vs Budesonide) was “Full”.
